Data on one compound can be found in US9034891B2, “Bicyclic heterocyclic spiro compounds” (ISRAEL INSTITUTE FOR BIOLOGICAL RESEARCH, priority 2009, dated 2015).

The structures appear in SMILES notation. Values joined by “and” are separate entries in the source; they are usually repeats but may differ in a detail not shown here. Equal entries are not always repeated. Where two headings read alike, the source gives them in different places.

The target of one assay is T1, rat M1 mAChR (Rattus norvegicus, UniProt P08482).
T1 construct: expressed in transfected cells; host or cells: rat pheochromocytoma PC12 cells
Briefly: αAPPs secretion in PC12 cells stably transfected with rat M1 mAChR. Format: cell-based. Particulars: 0.1 nM to 1 μM, not observed in untransfected PC12. How it is done: α-APPs Secretion studies following incubation with the tested compounds were performed as described in Haring, et al. J. Neurochem., 1998, 71:2094-103. […] A day later, cells were washed twice with serum free media, and treated with the test compound at various concentrations ranging from 0.1 nM to 100 μM. […] After 1 hour the conditioned medium was collected to cold Eppendorf tubes, which included a protease inhibitor cocktail (0.1 mM phenylmethylsulphonyl fluoride (PMSF); 5 μg/ml leupeptin; 5 μg/ml pepstatin and 5 units/ml aprotinin) for determining αAPPs release. The protein content of each sample was concentrated using Centricon tubes (Amicon, Beverly, Mass.). […] CHO cells double transfected with human APP695 and M1 mAChR APPs bands were probed using anti-amyloid beta protein (1:1000, monoclonal 6E10 antibody, MAB1560, Chemicon) and peroxidase-linked rabbit anti mouse IgG (1:5,000; Jackson Immuno Research, PA). PC12 cells stably transfected with M1 mAChR APPs bands were probed using the anti-Alzheimer precursor protein A4 (1:4,000; monoclonal 22C11 antibody, Boehringer Mannheim) and the peroxidase-linked rabbit anti mouse IgG (1:20,000; Jackson Immuno Research, PA). […] Quantitative determination of the total APPs bands was performed by Scion Image program (NIH, Bethesda, USA). […]

The target of a further assay is T2, sigma 1 receptors (Cavia porcellus, UniProt Q60492).
T2 construct: displacement assay of tritiated-pentazocine from guinea-pig cerebral cortex; from tissue; host or cells: guinea-pig cerebral cortex
T2 sequence (Q60492 whole entry): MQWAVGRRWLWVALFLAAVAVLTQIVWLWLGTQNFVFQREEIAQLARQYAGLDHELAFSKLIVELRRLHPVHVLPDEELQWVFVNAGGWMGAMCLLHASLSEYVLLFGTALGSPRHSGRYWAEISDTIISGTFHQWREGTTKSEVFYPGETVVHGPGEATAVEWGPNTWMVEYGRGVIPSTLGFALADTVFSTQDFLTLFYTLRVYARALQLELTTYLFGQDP
The assay is described as follows: Displacement of tritiated-pentazocine from guinea-pig cerebral cortex. Type of assay: binding. An excerpt:
It was specifically designed to provide information not only on potential limitations of drug candidates, but also for off-target activity identification. […] In a further extension of this study, functional studies were done on most of these receptors.

The target of assay [1] is T3, M1 mAChR (Rattus norvegicus, UniProt P08482).
T3 sequence (P08482 1-460): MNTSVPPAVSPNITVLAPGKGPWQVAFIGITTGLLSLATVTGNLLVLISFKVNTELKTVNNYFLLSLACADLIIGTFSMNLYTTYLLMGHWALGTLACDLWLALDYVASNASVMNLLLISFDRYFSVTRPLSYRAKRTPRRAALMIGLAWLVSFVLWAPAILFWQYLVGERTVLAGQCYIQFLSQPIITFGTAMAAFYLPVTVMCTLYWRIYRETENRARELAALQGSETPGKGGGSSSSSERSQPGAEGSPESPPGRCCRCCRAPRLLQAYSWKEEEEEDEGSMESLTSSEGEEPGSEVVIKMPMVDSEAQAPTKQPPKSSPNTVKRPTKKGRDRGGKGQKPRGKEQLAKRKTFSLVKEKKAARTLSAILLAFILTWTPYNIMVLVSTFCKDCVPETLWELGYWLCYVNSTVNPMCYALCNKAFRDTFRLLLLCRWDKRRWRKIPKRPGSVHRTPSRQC
Briefly: biochemical.

A further assay has as its system PC12M1 cells. Briefly: Mitochondrial apoptosis pathway, Bax and Bcl-2 immunoreactivity in PC12M1 cells. Also on record: Emax: dose or concentration left out as unconfirmed.
A further assay concerns GSK-3β. The assay is described as follows: Phospho-GSK3β (Ser 9) western blot in PC12 cells transfected with M1 mAChR, +Aβ25-35. Type of assay: cell-based, rat. Particulars: 100 μM-1 nM; Aβ25-35 20 μM. (A western blot detects proteins with antibodies after separation by electrophoresis.)
A further assay relates to tau protein. The assay is described as follows: Tau-1 (unphosphorylated tau) western blot in PC12 cells transfected with M1 mAChR, +Aβ25-35. Format: cell-based, rat. Particulars: 100 μM-1 nM; Aβ25-35 20 μM.
The next assay deals with rats. The assay is described as follows: Passive avoidance, MK-801-induced impairment in rats. Format: in vivo, rat. An excerpt:
Trihexyphenidyl is a selective M1 muscarinic antagonist that crosses the blood brain barrier and induces memory and learning impairments (Bymaster et al., J Pharmacol Exp. Ther. 267: 16-24, 1993; Roldan et al., Neurosci. Lett. 230: 93-96, 1997; Kimura et al., Brain Res. 834: 6-12, 1999). […] Naive Wistar rats were used in the experiments below. The passive avoidance (PA) task consists of a training (acquisition) phase and a retention phase. In the training procedure each rat was individually placed in the small illuminated compartment and after 60 s. of familiarization/adaptation, the door to the large compartment was opened and the latency to enter was measured (Initial Latency) Immediately following entry into the dark compartment, the door was closed and inescapable foot shock (0.6 mA for 3 s) was delivered through the grid floor. […] After the acquisition trial the rat was returned to its home cage. Retention of the passive avoidance task was measured 24 h later, by again placing the rat in the light compartment and after a 60 s adaptation interval, the door was opened and the latency to re-enter the dark compartment was measured. […] Two separate experiments were conducted. […] In both experiments the rats were divided into 2 groups. One main group was treated with trihexyphenidyl (5 mg/kg, s.c) and the second main group was treated with vehicle (DDW-1 ml/kg, s.c.), 30 min before the shock.
MK-801 is an NMDA antagonist that induces cognitive behavioral impairments in rodents. […] In the first experiment (dose-finding study of MK-801) rats were divided into 4 groups. Three groups (N=27) were treated with MK-801 (50, 80 or 100 μg/kg, s.c) and the fourth group (N=10) was treated with vehicle (saline-1 ml/kg, s.c.), 30 min before the shock. […] One group (N=80) was treated with MK-801 (80 μg/kg, s.c) and the second group (N=59) was treated with the vehicle (saline-1 ml/kg, s.c.).

Assay [2] addresses T3, M1 mAChR. Particulars: [3H]PZ, rat cortical membranes.

Excerpt for GSK-3β: (§1) Anti-GSK-3 (Santa Cruz Biotechnology) is a phosphorylation-independent monoclonal antibody reactive with both GSK-3α and GSK3β. In the same experiments the status of tau protein phosphorylation was studied using mouse anti Tau-1 monoclonal antibody (Chemicon, CAT number MAB3420), which recognizes an unphosphorylated epitope of tau.
Description for PC12M1 cells: These cells were partially differentiated (2-3 days), as observed under microscope. […] The pellet (rich mitochondrial fraction) was re-suspended with 200 μl Ripa buffer and lysed by rapid passage through a syringe needle (23G) for five to six times. The lysate was then used for further evaluation.
Bands were probed using the Rabbit Bax antibody (1:1000, Cell signaling, Cat. No. 2772) and Rabbit Bcl-2 antibody (1:1000, Cell signaling, Cat. No. 2870) followed by anti rabbit IgG (H&L) HRP (1:5,000, Jackson Immuno Research, 111-035-144).
Excerpt for tau protein: as §1

Regarding `C[C@@H]1SC2(CCN(C)CC2)CN1C(=O)CCc1c[nH]c2ccccc12` (single isomer, unassigned) [AF710B], the “release of αAPPs” value on rat M1 mAChR is “enhanced the release of αAPPs”. Also, the Ki came to 1.4 nM on sigma 1 receptors (read-out: sigma 1 receptors KH); 248 nM at sigma 1 receptors (read-out: sigma 1 receptors KL); 0.046 nM on M1 mAChR [1]; 0.015 nM at M1 mAChR [1] (KH, brucine experiment, without brucine); 0.034 nM at M1 mAChR [1] (KH, with brucine 0.1 mM); 34000 nM on M1 mAChR [1] (KL, brucine experiment, without brucine). The Ki on M1 mAChR [1] (KL, with brucine 0.1 mM) came to 15000 nM; on M1 mAChR [2] (read-out: lower affinity binding site KL), 41000 nM. Also, the “Bax elevation after NGF deprivation” value in the assay on PC12M1 cells (PC12M1 cells) is on record as “attenuated Bax elevation”. Also, in the assay on PC12M1 cells (PC12M1 cells, Aβ 25-35, 1 nM), the “Bcl-2, maximum effect” value is listed as 164±32% of control. The Emax in the assay on PC12M1 cells (Rattus norvegicus, read-out: Aβ 25-35 induced neurotoxicity expressed as Bax/Bcl2, maximum effect) is 18%. Further, the “overactivation of GSK-3β induced by Aβ25-35” value with GSK-3β is “inhibited the overactivation of GSK-3β”. The “Tau-1 staining decreased by Aβ25-35” value in the assay with tau protein is reported as “restored these effects to control level”. The retention latency in the assay with rats (10 μg/kg po, MK-801 80 μg/kg sc, MK-801+DDW 94.7±24.7) was 336.3 ± 70 s and 336.3 ± 70.0 s; in the assay on rats (30 μg/kg po, MK-801 80 μg/kg sc) it was 370.0 ± 60 s and 370.0 ± 57.0 s; in the assay with rats (100 μg/kg po, MK-801 80 μg/kg sc), 325.6 ± 66.6 s; in the assay with rats (AF710B 10 μg/kg with NE-100 1 mg/kg, MK801 80 μg/kg), 184.8 ± 58.0 s; in the assay with rats (AF710B 30 μg/kg with NE-100 1 mg/kg, MK801 80 μg/kg), 227.3 ± 38.5 s. Further, the “retention latency vs. MK-801 rats treated with DDW” value in the assay with rats (1, 3 and 5 or 300 μg/kg, po) is given as “not significantly different”. The “cognitive enhancer dose range” value in the assay on rats (po, MK801-induced passive avoidance impairment) was 0.01 to 0.1 mg/kg. The “fraction of higher affinity binding site” value at M1 mAChR [2] was 29%. For the same compound, the “fraction of lower affinity binding site” value on M1 mAChR [2] is 71%.
